Experimental data from patent publication US12043600B2, “Microbiocidal compounds” (SYNGENTA CROP PROTECTION AG, priority 2018, dated 2024).

How the values were obtained:
[1] = test system: Mycosphaerella arachidis (Cercospora arachidicola); assay: Mycosphaerella arachidis (Cercospora arachidicola)/Liquid Culture (Early Leaf Spot); assay type: cell-based; conditions: liquid culture, compared to untreated control
Summary of the method: (§1)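 First, the test compound in DMSO is placed in the wells. Next, potato dextrose broth seeded with conidia taken straight from cryogenic storage is added, and the culture is left to grow.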

Phytophthora infestans = assay: whole plant or invertebrate; assay type: in vivo; conditions: in Solanum lycopersicum, foliar, read-out: control of Phytophthora infestans
[2] = test system: Magnaporthe grisea (Pyricularia oryzae); assay: whole plant or invertebrate; assay type: in vivo; conditions: foliar, read-out: control of Magnaporthe grisea
[3] = test system: Puccinia recondita f. sp. tritici; assay: Puccinia recondita f. sp. tritici/Wheat/Leaf Disc Curative (Brown Rust); assay type: in vivo; conditions: foliar, wheat leaf disc curative, compared to untreated control
Summary of the method: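 Curative leaf-disc test on wheat cv. Kanzler segments on agar, spore-inoculated and kept dark at 19° C, 75% rh; formulated compound in water applied 1 day after inoculation. Incubated at 19° C, 75% rh, 12 h light/12 h dark; percent disease control versus untreated scored 6-8 days after application.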

Plasmopara viticola = assay: whole plant or invertebrate; assay type: in vivo; conditions: foliar, read-out: control of Plasmopara viticola
[4] = test system: Puccinia recondita f. sp. tritici; assay: Puccinia recondita f. sp. tritici/Wheat/Leaf Disc Preventative (Brown Rust); assay type: in vivo; conditions: foliar, 200 ppm, wheat leaf disc preventative, compared to untreated control, read-out: control of Puccinia recondita f. sp. tritici
Sclerotinia sclerotiorum = assay: Sclerotinia sclerotiorum/Liquid Culture (Cottony Rot); assay type: cell-based; conditions: liquid culture, compared to untreated control
Procedure: Mycelia fragments of a newly grown liquid culture of the fungus are directly mixed into nutrient broth (PDB potato dextrose broth). After placing a (DMSO) solution of test compound into a microtiter plate (96-well format) the nutrient broth containing the fungal material is added.

[5] = test system: Mycosphaerella graminicola (Septoria tritici); assay: Mycosphaerella graminicola (Septoria tritici)/Liquid Culture (Septoria Blotch); assay type: cell-based; conditions: Zymoseptoria tritici; 20 ppm; liquid culture; compared to untreated control
Summary of the method: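 Conidia from cryogenic storage mixed into potato dextrose broth and added to microtiter wells already holding DMSO solutions of test compound. Activity expressed as percentage disease control.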

[6] = test system: Glomerella lagenarium (Colletotrichum lagenarium); assay: Glomerella lagenarium (Colletotrichum lagenarium)/Liquid Culture (Anthracnose); assay type: cell-based; conditions: Colletotrichum orbiculare, liquid culture, compared to untreated control
[7] = test system: Blumeria graminis f. sp. tritici (Erysiphe graminis f. sp. tritici); assay: Blumeria graminis f. sp. tritici/Wheat/Leaf Disc Preventative (Powdery Mildew on Wheat); assay type: in vivo; conditions: foliar, wheat leaf disc preventative, compared to untreated control
Summary of the method: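 Wheat cv. Kanzler leaf segments on agar sprayed with formulated compound, inoculated with powdery mildew 1 day later and held at 20° C, 60% rh (24 h dark, then 12 h light/12 h dark). Percent disease control versus untreated scored 6-8 days after application.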

[8] = test system: Monographella nivalis (Microdochium nivale); assay: Monographella nivalis (Microdochium nivale)/Liquid Culture (Foot Rot Cereals); assay type: cell-based; conditions: liquid culture, compared to untreated control
Summary of the method: as §1

[9] = test system: Phaeosphaeria nodorum (Septoria nodorum); assay: Phaeosphaeria nodorum (Septoria nodorum)/Wheat/Leaf Disc Preventative (Glume Blotch); assay type: in vivo; conditions: Parastagonospora nodorum, foliar, wheat leaf disc preventative, compared to untreated control
Summary of the method: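 Wheat cv. Kanzler leaf discs on agar were sprayed with formulated compound diluted in water and inoculated with P. nodorum spores 2 days later. Discs kept at 20 °C, 75% rh, 12 h light/dark; percent disease control versus untreated scored 5–7 days after application.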

[10] = test system: Botryotinia fuckeliana (Botrytis cinerea); assay: Botryotinia fuckeliana (Botrytis cinerea)/Liquid Culture (Gray Mould); assay type: cell-based; conditions: liquid culture, compared to untreated control
Procedure: Conidia of the fungus from cryogenic storage are directly mixed into nutrient broth (Vogels broth). After placing a (DMSO) solution of test compound into a microtiter plate (96-well format), the nutrient broth containing the fungal spores is added.

[11] = Photostability assay (Atlas Suntest); assay type: physicochemical; conditions: Suntest 750 W/m^2, spotted on microscope slides
Procedure: The testing method to measure the photostability data of each compound in table is D1 is as specifically described below. The objective of the photostability assay was to determine the stability of the individual test compounds in a strictly controlled and reproducible environment allowing a comparison of their photostability.
Method: Compounds were dissolved in methanol (HPLC grade) to give 1 g/L stock solutions. Compound stock solution (2 μl) was spotted onto microscope slides in a 3D printed holder and put into the Atlas Suntest. The spectral output power of the Suntest was set to 750 W/m^2, which is considered typical of the daily maximum (noon) irradiance level on a very bright British Summer day. At specific time points slides were removed from the Suntest and placed in 4D vials. Wash solvent made up of 50:40:10 H2O:MeCN:THF (1 mL) is then added to the vials and whirlimixed. The resulting solution is then subsampled to an HPLC vial to be analysed. A Waters UPLC system with Photodiode Array was used with a Waters reverse phase column (BEH C18, 100×2.1 mm×1.7 μm) and acetonitrile (HPLC grade) acidified water (0.2% formic acid) mobile phase at a flow rate of 0.6 mL/min. Peak detection was at the optimum wavelength and peak areas were used for quantification
Initial and subsequent measurements of peak area attributable to the test compound were used to provide a % parent remaining at 3 hours.

Phakopsora pachyrhizi = assay: Phakopsora pachyrhizi/Soybean/Preventative (Soybean Rust); assay type: in vivo; conditions: 288 h, Phakopsora pachyrhizi (Soybean rust); for pest or weed control at 200 ppm: read-out: control (%)
[12] = test system: Thanatephorus cucumeris (Rhizoctonia solani); assay: Thanatephorus cucumeris (Rhizoctonia solani)/Liquid Culture (Foot Rot, Damping-Off); assay type: cell-based; conditions: liquid culture, compared to untreated control
Procedure: Mycelia fragments of a newly grown liquid culture of the fungus are directly mixed into nutrient broth (PDB potato dextrose broth). After placing a (DMSO) solution of the test compounds into a microtiter plate (96-well format), the nutrient broth containing the fungal material is added.

Pyrenophora teres = assay: Pyrenophora teres/Barley/Leaf Disc Preventative (Net Blotch); assay type: in vivo; conditions: foliar, 200 ppm, barley leaf disc preventative, compared to untreated control, read-out: control of Pyrenophora teres
Summary of the method: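 Formulated compound, diluted in water, sprayed onto barley cv. Hasso leaf segments on agar; spore suspension inoculation followed 2 days after application. Results expressed as percentage disease control.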

Alternaria solani = assay: Alternaria solani/Tomato/Leaf Disc (Early Blight); assay type: in vivo; conditions: foliar, tomato leaf disc, compared to untreated control
Summary of the method: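 Tomato cv. Baby leaf disks on agar were sprayed with diluted formulated compound and inoculated with spores 2 days later. Incubation at 23° C./21° C. day/night, 80% rh, 12/12 h light; percent disease control versus untreated scored 5-7 days after application.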

SMILES | inhibition of growth at 20 ppm [1] [%] | pest or weed control at 200 ppm (Phytophthora infestans) [%] | pest or weed control at 200 ppm [2] [%] | pest or weed control at 200 ppm [3] [%] | pest or weed control at 200 ppm (Plasmopara viticola) [%] | pest or weed control at 200 ppm [4] [%] | inhibition of growth at 20 ppm [5] [%] | inhibition of growth at 20 ppm [6] [%] | pest or weed control at 200 ppm [7] [%] | inhibition of growth at 20 ppm [8] [%] | melting point [°C] | pest or weed control at 200 ppm [9] [%] | inhibition of growth at 20 ppm [10] [%] | % Parent Remaining @ 3 hrs [11] [%] | inhibition of growth at 20 ppm [12] [%] | pest or weed control at 200 ppm (Pyrenophora teres) [%] | other results
CO/C=C(\Oc1cc(-n2ccc(C3CCC3)n2)c(F)cc1C)C(=O)OC [Compound E-18, methyl (Z)-2-[5-(3-cyclobutylpyrazol-1-yl)-4-fluoro-2-methyl-phenoxy]-3-methoxy-prop-2-enoate] | ≥ 80 | ≥ 80 | ≥ 80 | ≥ 80 | ≥ 80 | ≥ 80 | ≥ 80 | ≥ 80 | ≥ 80 | ≥ 80 | – | – | – | – | – | – | inhibition of growth at 20 ppm (Sclerotinia sclerotiorum): ≥ 80%
CO/C=C(\Oc1cc(-n2ccc(C(F)(F)F)n2)cc(C)c1C)C(=O)OC [Compound E-19, methyl (Z)-2-[2,3-dimethyl-5-[3-(trifluoromethyl)pyrazol-1-yl]phenoxy]-3-methoxy-prop-2-enoate] | ≥ 80 | ≥ 80 | ≥ 80 | – | ≥ 80 | ≥ 80 | ≥ 80 | ≥ 80 | ≥ 80 | ≥ 80 | 144 to 146 | ≥ 80 | – | – | – | – | inhibition of growth at 20 ppm (Sclerotinia sclerotiorum): ≥ 80%
CCCc1ccn(-c2ccc(C)c(O/C(=C\OC)C(=O)OC)c2)n1 [Compound E-40, methyl (Z)-3-methoxy-2-[2-methyl-5-(3-propylpyrazol-1-yl)phenoxy]prop-2-enoate] | ≥ 80 | ≥ 80 | ≥ 80 | – | ≥ 80 | – | ≥ 80 | ≥ 80 | ≥ 80 | ≥ 80 | 91 to 94 | ≥ 80 | ≥ 80 | 65 | ≥ 80 | – | pest or weed control at 0.6 ppm (Phakopsora pachyrhizi): 10%; pest or weed control at 2 ppm (Phakopsora pachyrhizi): 35%; pest or weed control at 6 ppm (Phakopsora pachyrhizi): 90%; pest or weed control at 20 ppm (Phakopsora pachyrhizi): 95%; pest or weed control at 60 ppm (Phakopsora pachyrhizi): 100%; pest or weed control at 200 ppm (Phakopsora pachyrhizi): 100%
CO/C=C(\Oc1cc(-n2ccc(C(C)C)n2)c(F)cc1C)C(=O)OC [Compound E-41, methyl (Z)-2-[4-fluoro-5-(3-isopropylpyrazol-1-yl)-2-methyl-phenoxy]-3-methoxy-prop-2-enoate] | ≥ 80 | – | ≥ 80 | ≥ 80 | ≥ 80 | ≥ 80 | ≥ 80 | ≥ 80 | ≥ 80 | ≥ 80 | – | – | – | 28 | ≥ 80 | – | –
CO/C=C(\Oc1cc(-n2ccc(C(F)(F)F)n2)c(F)cc1C)C(=O)OC [Compound E-42, methyl (Z)-2-[4-fluoro-2-methyl-5-[3-(trifluoromethyl)pyrazol-1-yl]phenoxy]-3-methoxy-prop-2-enoate] | ≥ 80 | – | ≥ 80 | ≥ 80 | ≥ 80 | ≥ 80 | ≥ 80 | ≥ 80 | ≥ 80 | ≥ 80 | 104 to 108 | ≥ 80 | ≥ 80 | 24 | ≥ 80 | ≥ 80 | –
CCC(C)c1ccn(-c2ccc(C)c(O/C(=C\OC)C(=O)OC)c2)n1 (centres unmarked) [Compound E-44, methyl (Z)-3-methoxy-2-[2-methyl-5-(3-sec-butylpyrazol-1-yl)phenoxy]prop-2-enoate] | ≥ 80 | ≥ 80 | ≥ 80 | – | ≥ 80 | – | ≥ 80 | ≥ 80 | ≥ 80 | ≥ 80 | 110 to 113 | ≥ 80 | ≥ 80 | 69 | ≥ 80 | ≥ 80 | –
CO/C=C(\Oc1cc(-n2ccc(C3CC3)n2)ccc1C)C(=O)OC [Compound E-101, methyl (Z)-2-[5-(3-cyclopropylpyrazol-1-yl)-2-methyl-phenoxy]-3-methoxy-prop-2-enoate] | ≥ 80 | ≥ 80 | – | – | ≥ 80 | – | ≥ 80 | ≥ 80 | ≥ 80 | ≥ 80 | 115 to 118 | ≥ 80 | ≥ 80 | 38 | ≥ 80 | – | –
CO/C=C(\Oc1cc(-n2ccc(C(F)(F)F)n2)ccc1C)C(=O)OC [Compound E-105, methyl (Z)-3-methoxy-2-[2-methyl-5-[3-(trifluoromethyl)pyrazol-1-yl]phenoxy]prop-2-enoate] | ≥ 80 | – | ≥ 80 | – | ≥ 80 | – | ≥ 80 | ≥ 80 | ≥ 80 | ≥ 80 | 154 to 156 | ≥ 80 | ≥ 80 | 74 | – | ≥ 80 | pest or weed control at 200 ppm (Alternaria solani): ≥ 80%; pest or weed control at 0.6 ppm (Phakopsora pachyrhizi): 0%; pest or weed control at 2 ppm (Phakopsora pachyrhizi): 0%; pest or weed control at 6 ppm (Phakopsora pachyrhizi): 20%; pest or weed control at 20 ppm (Phakopsora pachyrhizi): 95%; pest or weed control at 60 ppm (Phakopsora pachyrhizi): 100%; pest or weed control at 200 ppm (Phakopsora pachyrhizi): 100%
